Measurements reported in patent US6063773A, “Cellulose sulfate for use as antimicrobial and contraceptive agent” (Polydex Pharmaceuticals Ltd., priority 1995, dated 2000).

What was measured:
rabbit spermatozoa = test: Fertilization outcome after artificial insemination of spermatozoa pretreated with polysaccharides; format: in vivo; conditions: for anti-fertility effect of treating spermatozoa: spermatozoa treated with comparator polysaccharide
Source text: FIG. 1 is a table showing fertilization outcome after artificial insemination of spermatozoa pretreated with different polysaccharides.
FIG. 1 illustrates the antifertility effect of cellulose sulfate on rabbit spermatozoa at a concentration as low as 0.1%.

conception in rabbits = test: Contraceptive efficacy when applied vaginally; format: in vivo, rabbit
Source text: FIG. 2 is a table showing the contraceptive efficacy of cellulose sulfate when applied vaginally.

spermatozoa = test: Cervical mucus penetration experiments; format: cell-based; conditions: 1% concentration, in vitro, FIG. 3
Source text: FIG. 3 is a table providing the results of cervical mucus penetration experiments.

human spermatozoa = test: Acrosome reaction of human spermatozoa; format: cell-based; conditions: FIG. 4
Source text: FIG. 4 is a table illustrating the influence of cellulose sulfate on acrosome reaction of human spermatozoa.
Acrosome refers to the anterior organelle of the sperm head necessary for fertilization of an egg by the sperm.

HSV = HSV infectivity experiments; format: cell-based; conditions: in vitro, FIG. 6
Source text: FIG. 6 is a table providing the results of HSV infectivity experiments.

HIV [1] = test: HIV inhibition assay; format: cell-based; conditions: concentration of 0.005%, in vitro, FIG. 5
Source text: FIG. 5 is a table illustrating the results of HIV inhibition assay experiments.

N. gonorrhea = test: Infectivity of N. gonorrhea; format: cell-based; conditions: FIG. 7
Source text: FIG. 7 is a table illustrating the effects of cellulose sulfate on the infectivity of N. gonorrhea.
(§1) Moreover, cellulose sulfate of the present invention at 1.8% has no effect on normal vaginal flora, namely Lactobacilli (FIG. 8).

[2] = tested on: chlamydial infection of HeLa cells; test: Anti-chlamydial effect, chlamydial infection of HeLa cells; format: cell-based; conditions: 100 μg/ml, FIG. 9
Experimental: FIG. 9 is a table illustrating anti-chlamydial effects of cellulose sulfate .
FIG. 9 illustrates anti-chlamydial effect of cellulose sulfate. At a concentration of 100 μg/ml, cellulose sulfate inhibits chlamydial infection of HeLa cells by 91%.

Lactobacilli = test: Growth of Lactobacilli; format: cell-based; conditions: 1.8%, FIG. 8
Source text: FIG. 8 is a table illustrating the effects of cellulose sulfate on the growth of Lactobacilli.
as §1

[3] = rabbit, in vivo
[4] = if used frequently; cited from earlier work
HIV [5] = conditions: known from the art; cited from earlier work
[6] = tested on: Herpes Simplex Virus (HSV); conditions: known from the art; cited from earlier work

Q: Which “anti-fertility effect of treating spermatozoa” value (rabbit spermatozoa) does the source give for heparin [reference compound] here?
A: little or no anti-fertility effect

Q: Which “percentage of fertilized oocytes compared with nonoxynol-9” value (conception in rabbits; 5% cellulose sulfate vs 2.2% commercial preparation of nonoxynol-9, intravaginal, rabbits) does the source give for cellulose sulfate here?
A: as effective or more effective than nonoxynol-9

Q: What about the risk of conception (conception in rabbits; 5% formulation applied intra-vaginally in rabbits, FIG. 2) of the same substance?
A: reduces the risk of conception

Q: What about the “penetration by spermatozoa into the cervical mucus” value (spermatozoa) of the same substance?
A: impedes penetration by spermatozoa into the cervical mucus membrane in vitro, and to a significantly greater extent than dextran sulfate

Q: And the “conception in rabbits inseminated with treated spermatozoa” value (rabbit spermatozoa; pre-treatment of spermatozoa with 1% cellulose sulfate)?
A: effectively prevented conception

Q: What about the “concentration showing antifertility effect on rabbit spermatozoa” value (rabbit spermatozoa; pre-treatment of spermatozoa, artificial insemination, FIG. 1) of the same substance?
A: ≤ 0.1%

Q: And the “acrosomal loss in human spermatozoa” value (human spermatozoa)?
A: induces acrosomal loss in human spermatozoa, and to a significantly greater extent than heparin or dextran sulfate

Q: And the “concentration inhibiting infection of human cells by HSV” value (HSV)?
A: ≤ 0.00001%

Q: What about the “binding of HIV to human cells” value (HIV [1]) of the same substance?
A: inhibits the binding of HIV to human cells

Q: And the “concentration that can completely kill N. gonorrhea” value (N. gonorrhea)?
A: at least 0.01%

Q: And the “inhibition of chlamydial infection of HeLa cells” value [2]?
A: 91%

Q: What about the “effect on normal vaginal flora, Lactobacilli” value (Lactobacilli) of the same substance?
A: no effect

Q: And the vaginal irritation [3]?
A: minimal vaginal irritation

Q: And the “vaginal irritation in combination with nonoxynol-9” value [3]?
A: does not cause an increase in the vaginal irritation of nonoxynol-9

Q: For nonoxynol-9, which “effect on natural vaginal flora” value [4] is on record?
A: inactivates the natural protective vaginal flora

Q: And the “irritation of vaginal mucus membrane” value [4]?
A: causes irritation to the mucus membrane of the vagina

Q: For heparin sulfate, which “HIV infectivity in vitro” value (HIV [5]) is on record?
A: inhibit HIV infectivity in vitro

Q: And the HSV inhibition [6]?
A: inhibit HSV infectivity

Q: Which results are given for dextran sulfate?
A: anti-fertility effect of treating spermatozoa (rabbit spermatozoa): little or no anti-fertility effect; HIV infectivity in vitro (HIV [5]): inhibit HIV infectivity in vitro; HSV inhibition [6]: inhibit Herpes Simplex Virus (HSV)
